Reference: US20240024403A1, “Compositions and Methods for Managing Weight” (Unigen, Inc., priority 2012, published 2024)

Test: High fat diet induced obesity (DIO) mouse model
Format: in vivo, C57CL/6J mice
Parameters: Epididymal Fat weight / Retroperitoneal Fat weight / Total Fat (sum of the three fat deposits) / Retroperitoneal Fat / Total Fat / Epididymal Fat, absolute weight / Retroperitoneal Fat, absolute weight: unit not given here
Conditions: for Weight (total body weight) / Total Weight: in g (unit assumed)
Description: C57CL/6J mice aged 4-6 weeks (Korea Research Institute of Bioscience & Biotechnology, Ohchang, Korea) were housed in Polycarbonate cages (five mice per cage) in a room with a 12 hr:12 hr light-dark cycle and an ambient temperature of 24° C. All the mice were fed a commercial chow diet for 1 week after arrival in the animal facility. Mice were then divided into normal and obesity groups and fed with normal diet (ND) and high fat diets (HFD) respectively. The HFD group was divided into multiple treatment groups: a high fat diet vehicle group (HFD), an orlistat (purchased as OTC drug Alli®) positive control treatment group (ORI, 40 mg/kg of animal weight, 2 times/day) and optionally a sibutramine positive control treatment group (10 mg/kg, 1 time/day). The HFD contained 340 g of fat/kg of HFD (310 g lard plus 30 g soybean oil; Harlan Laboratories, USA). The HFD was formulated to provide 60% of the total energy generated by the diet from fat by replacing carbohydrate energy with lard and soybean oil, whereas the normal diet (ND) group was fed a diet providing only 18% of the total diet energy from fat(Harlan Laboratories, USA).
Body weight was measured once each week and feed intake was measured twice per week. At the end of the experimental period, following a 12 hr. fasting period, the animals were anesthetized with ether, and blood was drawn from the abdominal vein. Liver and kidney and adipose tissues (epididymal, retroperitoneal, perirenal adipose tissues) were removed from each animal, rinsed with physiological saline, and weighed. Serum concentrations of glucose, total cholesterol, triglycerides, and LDL-cholesterol were determined using automatic analyzer (INTEGRA 400, Roche, Germany). Statistical significance of test results was measured using the Student's t-test.

[1] = DIO mice blood biochemistry, SIB 10 mg/kg, ORI 40 mg/kg, Mutamba extract 32 (G1) 1000 mg/kg, mean
[2] = DIO mice blood biochemistry, SIB 10 mg/kg, ORI 40 mg/kg, Mutamba extract 33-2 G1 1000 mg/kg, mean
[3] = DIO mice liver pathology score, SIB 10 mg/kg, ORI 40 mg/kg, Mutamba extract 32 (G1) 1000 mg/kg, mean
[4] = DIO mice, ORI 40 mg/kg, seven week study, mean
[5] = DIO mice, biochemistry parameters, G3, G4 1000 mg/kg oral two times per day
[6] = DIO mice, blood at end of study, ORI 40 mg/kg, mean
[7] = DIO mice, blood at end of study, ORI 40 mg/kg, G1 300 mg/kg (Morus:Magnolia 2:1)
[8] = DIO mice, blood at end of study, ORI 40 mg/kg, G1 1200 mg/kg (Morus:Yerba Mate 1:5)
[9] = DIO mice, liver pathology, ORI 40 mg/kg, mean
[10] = DIO mice, oral, seven weeks, combination (2:5) 700 mg/kg, ORI 40 mg/kg, group mean
[11] = DIO mice, oral, week 1, ORI 40 mg/kg, G1 700 mg/kg (Morus:Rosemary 2:5)
[12] = DIO mice, oral, week 1, ORI 40 mg/kg, G1 1200 mg/kg (Morus:Yerba Mate 1:5)
[13] = DIO mice, oral, week 2, ORI 40 mg/kg, G1 700 mg/kg (Morus:Rosemary 2:5)
[14] = DIO mice, oral, week 2, ORI 40 mg/kg, G1 1200 mg/kg (Morus:Yerba Mate 1:5)
[15] = DIO mice, oral, week 3, ORI 40 mg/kg, G1 700 mg/kg (Morus:Rosemary 2:5)
[16] = DIO mice, oral, week 3, ORI 40 mg/kg, G1 1200 mg/kg (Morus:Yerba Mate 1:5)
[17] = DIO mice, oral, week 4, ORI 40 mg/kg, G1 700 mg/kg (Morus:Rosemary 2:5)
[18] = DIO mice, oral, week 4, ORI 40 mg/kg, G1 1200 mg/kg (Morus:Yerba Mate 1:5)
[19] = DIO mice, oral, week 5, ORI 40 mg/kg, G1 700 mg/kg (Morus:Rosemary 2:5)
[20] = DIO mice, oral, week 5, ORI 40 mg/kg, G1 1200 mg/kg (Morus:Yerba Mate 1:5)
[21] = DIO mice, oral, week 6, ORI 40 mg/kg, G1 700 mg/kg (Morus:Rosemary 2:5)
[22] = DIO mice, oral, week 6, ORI 40 mg/kg, G1 1200 mg/kg (Morus:Yerba Mate 1:5)
[23] = DIO mice, oral, week 7, ORI 40 mg/kg, G1 700 mg/kg (Morus:Rosemary 2:5)
[24] = DIO mice, oral, week 7, ORI 40 mg/kg, G1 1200 mg/kg (Morus:Yerba Mate 1:5)
[25] = DIO mice, seven weeks, ORI 40 mg/kg, G1 300 mg/kg (Morus:Magnolia 2:1)
[26] = DIO mice, seven weeks, ORI 40 mg/kg, G1 1200 mg/kg (Morus:Yerba Mate 1:5)
[27] = DIO mice, week 1, G1-G4 1000 mg/kg oral gavage two times per day
[28] = DIO mice, week 2, G1-G4 1000 mg/kg oral gavage two times per day
[29] = DIO mice, week 3, G1-G4 1000 mg/kg oral gavage two times per day
[30] = DIO mice, week 4, G1-G4 1000 mg/kg oral gavage two times per day
[31] = DIO mice, week 5, G1-G4 1000 mg/kg oral gavage two times per day
[32] = DIO mice, week 6, G1-G4 1000 mg/kg oral gavage two times per day
[33] = DIO mice, week 7, G1-G4 1000 mg/kg oral gavage two times per day
[34] = DIO mice, G1-G4 1000 mg/kg oral gavage two times per day

## CCCCCCCCCCC[C@@H](C[C@@H]1OC(=O)[C@H]1CCCCCC)OC(=O)[C@H](CC(C)C)NC=O [ORI, orlistat]
[1]
  ALT: 40.42 U/L
  AST: 67.96 U/L
  HDL-C: 78.52 mg/dL
  LDL-C: 6.78 mg/dL
  T-chol: 184.40 mg/dL
  TG: 143.60 mg/dL
[2]
  LDL-C: 7.42 mg/dL
  T-chol: 182.40 mg/dL
  TG: 41.20 mg/dL
[3]
  Hepatocellular ballooning (0-2): 0.60
  Lobular Inflammation (0-3): 1.60
  Steatosis (0-3): 1.20
DIO mice liver pathology, sum of scores, SIB 10 mg/kg, ORI 40 mg/kg, Mutamba extract 32 (G1) 1000 mg/kg, mean
  NASH (sum): 3.40
[4]
  Food Intake: 3.195 g/day
  Weight Gain: 0.000 g/day
DIO mice, ORI 40 mg/kg, seven week study, body weight gain/food intake
  Food Efficiency Ratio (FER): 0.000
DIO mice, ORI 40 mg/kg, week 1, mean
  Weight Gain: −5.43
DIO mice, ORI 40 mg/kg, week 2, mean
  Weight Gain: −6.69
DIO mice, ORI 40 mg/kg, week 3, mean
  Weight Gain: −5.27
DIO mice, ORI 40 mg/kg, week 4, mean
  Weight Gain: −3.47
DIO mice, ORI 40 mg/kg, week 5, mean
  Weight Gain: −2.34
DIO mice, ORI 40 mg/kg, week 6, mean
  Weight Gain: −1.08
DIO mice, ORI 40 mg/kg, week 7, mean
  Weight Gain: 0.02
[5]
  ALP: 186.51 U/L
  ALT: 35.12 U/L
  AST: 62.03 U/L
  Glu: 267.22 mg/dL
  HDL-C: 74.22 mg/dL
  LDL-C: 7.56 mg/dL
  T-chol: 175.44 mg/dL
  TG: 46.78 mg/dL
  TP: 4.89 g/dL
[6]
  ALT: 21.83 U/L
  AST: 65.65 U/L
  TG: 27.83 mg/dL
[7]
  F-Glu (fasting glucose): 225.50 mg/dL
  LDL-C: 3.30 mg/dL
  T-Chol (total cholesterol): 134.00 mg/dL
  Triglyceride: 62.50 mg/dL
[8]
  F-Glu (fasting glucose): 225.50 mg/dL
  LDL-C: 3.30 mg/dL
  T-Chol (total cholesterol): 134.00 mg/dL
  Triglyceride: 62.50 mg/dL
[9]
  Hepatocellular ballooning (0-2): 0.67
  Lobular Inflammation (0-3): 1.33
  NASH (sum): 2.67
  Steatosis (0-3): 0.67
DIO mice, oral, seven weeks, combination 700 mg/kg, ORI 40 mg/kg, group mean
  Perirenal Fat: 0.43
DIO mice, oral, seven weeks, combination (2:5) 700 mg/kg, ORI 40 mg/kg, FER = body weight gain/food intake
  Food Efficiency Ratio (FER): 0.005
[10]
  Body Weight Gain: 0.012 g/day
  Food Intake: 2.711 g/day
DIO mice, oral, week 0, ORI 40 mg/kg, G1 700 mg/kg (Morus:Rosemary 2:5)
  Weight (total body weight): 42.39
DIO mice, oral, week 0, ORI 40 mg/kg, G1 1200 mg/kg (Morus:Yerba Mate 1:5)
  Total Weight: 38.40
DIO mice, oral, week 1, ORI 40 mg/kg, G1 300 mg/kg (Morus:Magnolia 2:1)
  Body Weight Gain: −3.20
[11]
  Body Weight Gain: −3.56
  Weight (total body weight): 38.83
[12]
  Weight Gain: −3.20
  Total Weight: 35.20
DIO mice, oral, week 2, ORI 40 mg/kg, G1 300 mg/kg (Morus:Magnolia 2:1)
  Body Weight Gain: −4.88
[13]
  Body Weight Gain: −5.75
  Weight (total body weight): 36.64
[14]
  Weight Gain: −4.88
  Total Weight: 33.58
DIO mice, oral, week 3, ORI 40 mg/kg, G1 300 mg/kg (Morus:Magnolia 2:1)
  Body Weight Gain: −3.34
[15]
  Body Weight Gain: −5.91
  Weight (total body weight): 36.48
[16]
  Weight Gain: −3.34
  Total Weight: 35.12
DIO mice, oral, week 4, ORI 40 mg/kg, G1 300 mg/kg (Morus:Magnolia 2:1)
  Body Weight Gain: −2.61
[17]
  Body Weight Gain: −3.82
  Weight (total body weight): 38.57
[18]
  Weight Gain: −2.61
  Total Weight: 35.84
DIO mice, oral, week 5, ORI 40 mg/kg, G1 300 mg/kg (Morus:Magnolia 2:1)
  Body Weight Gain: −2.04
[19]
  Body Weight Gain: −2.33
  Weight (total body weight): 40.07
[20]
  Weight Gain: −2.04
  Total Weight: 36.41
DIO mice, oral, week 6, ORI 40 mg/kg, G1 300 mg/kg (Morus:Magnolia 2:1)
  Body Weight Gain: −1.65
[21]
  Body Weight Gain: −1.44
  Weight (total body weight): 40.95
[22]
  Weight Gain: −1.65
  Total Weight: 36.80
DIO mice, oral, week 7, ORI 40 mg/kg, G1 300 mg/kg (Morus:Magnolia 2:1)
  Body Weight Gain: −0.07
[23]
  Body Weight Gain: 0.60
  Weight (total body weight): 42.99
[24]
  Weight Gain: −0.07
  Total Weight: 38.38
[25]
  Absolute Liver Weight: 1.05 g
  Body Weight Gain: -0.002 g/day
  Epididymal Fat weight: 1.92
  Food Intake: 3.961 g/day
  Perirenal Fat weight: 0.21
  Retroperitoneal Fat weight: 0.55
  Total Fat (sum of the three fat deposits): 2.68
DIO mice, seven weeks, ORI 40 mg/kg, G1 300 mg/kg, FER = body weight gain (g/day)/food intake (g/day)
  Food Efficiency Ratio (FER): 0.000
[26]
  Food Intake: 3.961 g/day
  Retroperitoneal Fat: 0.55
  Weight Gain: -0.002 g/day
DIO mice, seven weeks, ORI 40 mg/kg, G1 1200 mg/kg, FER = body weight gain (g/day)/food intake (g/day)
  Food Efficiency Ratio (FER): 0.000
DIO mice, week 0 (baseline), G1-G4 1000 mg/kg oral gavage two times per day
  Animal Body Weight, week 0: 41.44 gram
[27]
  Animal Body Weight, week 1: 40.17 gram
  Weight Gain, week 1: −3.97 gram
[28]
  Animal Body Weight, week 2: 36.20 gram
  Weight Gain, week 2: −5.37 gram
[29]
  Animal Body Weight, week 3: 34.80 gram
  Weight Gain, week 3: −4.08 gram
[30]
  Animal Body Weight, week 4: 36.09 gram
  Weight Gain, week 4: −3.11 gram
[31]
  Animal Body Weight, week 5: 37.06 gram
  Weight Gain, week 5: −1.26 gram
[32]
  Animal Body Weight, week 6: 38.91 gram
  Weight Gain, week 6: 0.05 gram
[33]
  Animal Body Weight, week 7: 40.22 gram
  Weight Gain, week 7: 0.72 gram
DIO mice, 2-week, Compositions 1, 2 1300 mg/kg/day, 3, 9 1700 mg/kg/day, orlistat 40 mg/kg 2 times/day, sibutramine 10 mg/kg 1 time/day
  Weight Gain 2-week: −5.07
DIO mice, 2-week, doses as in Example 76
  Average Feed Intake 2-week: 2.79
DIO mice, 2 weeks, Mean, Weight Gain (g/day)/Feed Intake (g/day)
  Food Efficiency Ratio (FER) 2 weeks: −0.223
DIO mice, 7-week, Compositions 1, 2 1300 mg/kg/day, 3, 9 1700 mg/kg/day, orlistat 40 mg/kg 2 times/day, sibutramine 10 mg/kg 1 time/day
  Weight Gain 7-week: 0.56
DIO mice, 7-week, doses as in Example 76
  Average Feed Intake 7-week: 3.09
DIO mice, 7 weeks, Mean, Weight Gain (g/day)/Feed Intake (g/day)
  Food Efficiency Ratio (FER) 7 weeks: 0.005
DIO mice, Body weight gain (g/day)/Food intake (g/day), G1 = 800 mg/kg orally twice a day
  FER (Food efficiency ratio): −0.001
DIO mice, Body weight gain (g/day)/Food intake (g/day), G1 = 1,100 mg/kg orally twice a day
  FER (Food efficiency ratio): −0.001
DIO mice, Body weight gain (g/day)/Food intake (g/day), G1 = 1,200 mg/kg orally twice a day
  FER (Food efficiency ratio): −0.001
DIO mice, FER = Weight Gain (g/day)/Food intake (g/day)
  FER (Food efficiency ratio): 0.006
DIO mice, FER = body weight gain (g/day)/food intake (g/day), SIB 10 mg/kg, ORI 40 mg/kg, Mutamba extract 32 (G1) 1000 mg/kg, mean
  Food Efficiency Ratio (FER): 0.013
DIO mice, FER = body weight gain (g/day)/food intake (g/day), SIB 10 mg/kg, ORI 40 mg/kg, Mutamba extract 33-2 G1 1000 mg/kg, mean
  Food Efficiency Ratio (FER): 0.034
[34]
  Absolute Organ Weight, PeriRenal Fat: 0.388 g
  Absolute Organ Weight, Retroperitoneal Fat: 0.567 g
